Tested on: mouse acute wound
Test: Wound healing effect of extract and indirubin derivative mixtures in mouse acute wound (Test Example 6)
Format: in vivo
Settings: mouse acute wound tissue, fluorescence staining
Protocol: Wound healing-promoting effect was investigated after treating an animal model with the indirubin derivative of Example 1 (0.5 mM), the indirubin derivative of Example 2 (0.5 mM) or the mixtures of Examples 12 and 13 (0.5 mM indirubin derivative mixed with 1 μg/mL Euodia sutchuenensis Dode extract).
The hair on the back of 7-week-old C3H mouse that entered the resting period was removed and a 1.5×1.5 cm^2 wound was made on the hair-removed region. A sample was applied to a positive control group, once daily for 12 days. After measuring wound size of the experimental animal on days 0 and 12, the wound tissue was fixed by immersing in 4% paraformaldehyde, embedded in paraffin and then sliced into 4 μm thickness. The sliced tissue was deparaffinized, rehydrated and then the degree of re-epithelialization was compared. Masson's trichrome staining and Picrosirius red staining were conducted for evaluation of the degree of collagen synthesis. For Masson's trichrome staining, a slide was immersed in Weigert's iron hematoxylin solution for 10 minutes and in Biebrich scarlet-acid fuchsin and aniline blue for 5 minutes each. […] The sliced skin tissue was fluorescence-stained using β-catenin, PCNA, keratin 14 and collagen I antibodies and was observed using a fluorescence microscope (FIG. 9a). […]

COc1ccc2c(c1)/C(=C1/Nc3ccccc3/C1=N\O)C(=O)N2 [Example 1, 5-methoxylindirubin-3′-oxime]
expression of β-catenin, PCNA, keratin 14 and collagen I: slightly lower as compared to the positive control group
